Experimental data published in patent US20240252652A1, “PROTEINS HAVING UNNATURAL AMINO ACIDS AND METHODS OF USE” (The Regents of the University of California, priority 2021, published 2024).

Experiments:
HEK293T cells = test: Cell viability assay (CellTiter-Blue); type: cell-based, human; settings: 0-1 mM SFY, 24 h or 48 h
Experimental: Error bars represent s.e.m.; n=3 independent tests.
Cell viability assay. 2×10^4 cells/well of HEK293T cells were seeded in a 96-well plate. On the next day, the media were replaced with fresh DMEM media supplemented with 0, 0.0625, 0.125, 0.25, 0.5, or 1 mM of SFY. The SFY-treated and control cells were cultured for an additional 24-48 h at 37° C. and then analyzed with CellTiter-Blue R Cell Viability Assay following the manufacturer's instructions.

Afb-Z complex = test: Cross-linking of MBP-Z24SFY and Afb4A-7X in live E. coli cells; type: cell-based; settings: 6 h expression, Western blot
From the text: (§1) To determine which amino acid residues could react with SFY via proximity-enabled reactivity directly in cells, we coexpressed in E. coli the Z protein and an affibody (Afb) specifically binding it. Based on the crystal structure of Afb-Z complex, we introduced SFY at site 24 of the Z protein and various natural residues at site 7 of the affibody (FIG. 11D), placing the two residues in close proximity upon Afb-Z binding. (Wang et al. J. Am Chem. Soc. 140:4995-4999 (2018)). After expression of Afb(24SFY) and Z(7X) (X=target residue) for 6 h. cells were lysed and analyzed with Western blot under denatured conditions (FIG. 11E). Crosslinking bands corresponding to the adduct of Afb and Z were detected for target residue His. Tyr, and Lys, for both Mm-tRNA^Pyl/MmSFYRS and Ma-tRNA^Pyl/MaSFYRS. We then purified 6×His-tagged Z and Afb proteins from cells and analyzed with SDS-PAGE. Consistently, a protein band corresponding to the cross-linked Z with Afb was clearly observed for Afb-7Lys. Afb-7His, and Afb-7Tyr (FIG. 11E). We further tested if SFY could crosslink with these residues in mammalian cells. […] (Liu et al. J. Am Chem. 141:9458-9462 (2019)). We incorporated SFY at site 103 of GST and mutated residue 107 to various target residues. HEK293T cells expressing these GST mutants were lysed and Western blotted to detect covalent GST dimer formation (FIG. 11G). […]

GST dimer = test: Cross-linking of GST-103SFY-107X in live mammalian cells; type: cell-based; settings: HEK293T cells, Western blot
From the text: as §1

What does the source list for `COc1ccc(C[C@H](N)C(=O)O)cc1S(=O)(=O)F` [SFY, (S)-1-carboxy-2-(3-(fluorosulfonyl)-4-methoxyphenyl)ethan-1-aminium]?
toxicity to HEK293T cells (HEK293T cells): did not observe obvious toxicity; target residues giving crosslinking bands (adduct of Afb and Z) (Afb-Z complex): detected for target residue His. Tyr, and Lys; target residues reacting (covalent GST dimer) (GST dimer): react with His. Tyr, and Lys
